Assay results published in PubChem BioAssay (NCI).
Several values for one entry are separate records, joined by “and”; a condition that tells them apart may be missing. Equal values may be shown once.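 Interpolation was linear, between the two tested concentrations surrounding the appropriate level; five concentrations were tested over 48 hours in 96-well plates. GI50 = concentration required for 50% inhibition of growth. At the TGI there is no net growth.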

Key:
Assay in all cases: DTP human tumour cell line panel, 48 h
CCRF-CEM leukemia = tested on: CCRF-CEM leukemia
HCC-2998 colon = tested on: HCC-2998 colon
HOP-62 NSCLC = tested on: HOP-62 NSCLC
NCI-H522 lung = tested on: NCI-H522 lung
SF-268 CNS = tested on: SF-268 CNS
SK-MEL-28 melanoma = tested on: SK-MEL-28 melanoma
TK-10 renal = tested on: TK-10 renal
U251 CNS = tested on: U251 CNS
UACC-62 melanoma = tested on: UACC-62 melanoma
PC-3 prostate = tested on: PC-3 prostate

| Compound | TGI (CCRF-CEM leukemia) | TGI (HCC-2998 colon) | TGI (HOP-62 NSCLC) | TGI (NCI-H522 lung) | TGI (SF-268 CNS) | TGI (SK-MEL-28 melanoma) | TGI (TK-10 renal) | TGI (U251 CNS) | TGI (UACC-62 melanoma) | GI50 (CCRF-CEM leukemia) | GI50 (HOP-62 NSCLC) | GI50 (NCI-H522 lung) | GI50 (PC-3 prostate) | TGI (PC-3 prostate) | GI50 (SF-268 CNS) | GI50 (SK-MEL-28 melanoma) | GI50 (TK-10 renal) | GI50 (U251 CNS) | GI50 (UACC-62 melanoma) | GI50 (HCC-2998 colon) |
| --- | --- | --- | --- | --- | --- | --- | --- | --- | --- | --- | --- | --- | --- | --- | --- | --- | --- | --- | --- | --- |
| CCOC(=O)C[C@@]12CCCN[C@]1(C)CCc1ccccc12 | > 100 µM | > 100 µM | > 100 µM | > 100 µM | > 100 µM | > 100 µM | > 100 µM | > 100 µM | > 100 µM | – | – | – | – | – | – | – | – | – | – | – |
| Oc1cn(-c2ccc(Cl)cc2)nc1-c1n[nH]c(=S)n1-c1ccc(F)cc1 | > 100 µM | – | 54.6 µM | 64.8 µM | 70.8 µM | > 100 µM | > 100 µM | > 100 µM | 28 µM | 7.29 µM | 22.7 µM | 18 µM | 14.8 µM | > 100 µM | 14.7 µM | 20.4 µM | 28.1 µM | 15.8 µM | 12 µM | – |
| CCCCCCCCCCCCCC(=O)O[C@H]1CC[C@H](NC(=O)[C@H](OC)[C@H](O)[C@@H](O)[C@H](O)/C=C/C(C)C)C(=O)N(C)C1 | 15 µM and 4.85 µM | 0.63 µM and 4.25 µM | 15 µM and > 23.8 µM | 0.269 µM and 0.168 µM | 15 µM and 2.38 µM | 15 µM and 3.57 µM | 15 µM and > 23.8 µM | 15 µM and 3.06 µM | 0.0655 µM and 0.00779 µM | 0.00238 µM | > 23.8 µM | 0.00689 µM | – | – | 0.0235 µM | 0.00238 µM | 0.05 µM | < 0.0015 µM | 0.00238 µM | 0.00238 µM |
| CCOC(=O)CNC(=O)c1[nH]cnc1/N=N/N(C)C | > 100 µM | > 100 µM | > 100 µM | > 100 µM | > 100 µM | > 100 µM | > 100 µM | > 100 µM | > 100 µM | – | – | – | – | – | – | – | – | – | – | – |
| Cc1ccc(S(=O)(=O)Nc2ccccc2C(C)(C)C)cc1 | 63.8 µM | > 100 µM | 45.9 µM | – | – | 43.2 µM | > 100 µM | 43.3 µM | 44.4 µM | – | – | – | – | – | – | – | – | – | – | – |
| CCCCCCCCCC1CC(=O)OC23CCCC(=O)C12O3 (centres undefined) | > 100 µM | > 100 µM | > 100 µM | > 100 µM | > 100 µM | > 100 µM | > 100 µM | > 100 µM | > 100 µM | – | – | – | – | – | – | – | – | – | – | – |
| O=C1C=CC2(O)OCC3C=C4O[C@@H]5OC6(CCCCC6)O[C@@H]5C4[C@@H]2[C@@H]13 (some centres undefined) | 45.8 µM | > 100 µM | > 100 µM | 27.9 µM | > 100 µM | 44.7 µM | 48.6 µM | > 100 µM | > 100 µM | – | – | – | – | – | – | – | – | – | – | – |
| CCOC(=O)c1cn(C)c2c(OC)c3ccccc3c(OC)c2c1=O | > 100 µM | – | 82.7 µM | > 100 µM | 74.9 µM | > 100 µM | 62 µM | 55.3 µM | 36.4 µM | 34.1 µM | 33.3 µM | > 100 µM | 29 µM | > 100 µM | 20.1 µM | 56 µM | 30.1 µM | 20.3 µM | 19.5 µM | – |
| CCOC(=O)C1=C(C)N(NC(N)=O)C2(N)N(NC(N)=O)C(C)=C(C(=O)OCC)C12C#N (centres undefined) | – | > 100 µM | > 100 µM | > 100 µM | > 100 µM | > 100 µM | – | > 100 µM | > 100 µM | – | – | – | – | – | – | – | – | – | – | – |
